Laboratory results taken from US12312325B2, “Methods and compounds useful in the synthesis of an AAK1 inhibitor” (Lexicon Pharmaceuticals, Inc., priority 2022, dated 2025).
Where a name gives a salt, the structure may show the parent alone. Each block holds one compound with its values, some of them ahead of it.

Columns and labels:
PC12 cells = conditions: treatment with the kinase inhibitor; cited from earlier work
[1] = storage stability of the crystalline form; format: physicochemical; conditions: stored at 40° C. and 75% relative humidity for up to four weeks
Description: (§1) Instead, the melting of Form I is observed to recrystallize to another, metastable form having a melting point of about 172.5° C.

water solubility = format: physicochemical; conditions: at 25° C.
Description: as §1

Structure (SMILES): COC(=O)[C@@]1(O)C[C@H]2O[C@]1(C)n1c3ccccc3c3c4c(c5c6ccccc6n2c5c31)C(=O)NC4 [Compound K252a, K252a]
Neuregulin-1 induced neurite outgrowth (PC12 cells): potentiation of Neuregulin-1 induced neurite outgrowth

water solubility (water solubility; listed as Form I): 26.8 mg/mL
Structure (SMILES): CC(C)C[C@](C)(N)COc1ccc(-c2ccnc(C(F)F)c2)nc1C(F)F [Compound K, ((S)-1-((2′,6-bis(difluoromethyl)-[2,4′-bipyridin]-5-yl)oxy)-2,4-dimethylpentan-2-aminiumdihydrogen phosphate]
stability on storage (form, morphology, purity) [1]: neither the form itself, its morphology, nor its purity changed

water solubility (water solubility; listed as hydrochloride salt of Compound J, hydrochloride): 2.9 mg/mL
Structure (SMILES): CC(C)C[C@](C)(N)COc1ccc(-c2ccnc(C(F)F)c2)nc1C(F)F [Compound S, (S)-1-((2′,6-bis(difluoromethyl)-[2,4′-bipyridin]-5-yl)oxy)-2,4-dimethylpentan-2-amine hydrochloride]
